Results published in patent US11109591B2, “Single phase liquids of alkanolamine salts of dicamba” (Taminco BVBA, priority 2017, dated 2021).

Columns and labels:
Assay type in all cases: physicochemical
[1] = Maximum loading of herbicide amine salt in water (HCl titration of amine, Karl-Fischer water); settings: glufosinate amine salts in water
Text: F is a factor that takes into account the amount of base or acid groups on the amine or acid, respectively.

[2] = Density of max-load solutions at ambient temperature
[3] = 2 mL samples spotted onto glass plates, left uncovered at ambient conditions for approximately two months; settings: 2 mL on glass plate, 20°-25° C.
Experimental: To evaluate the herbicidal compositions under more stringent conditions, we increased their surface area and exposed them to ambient conditions at room temperature, atmospheric pressure, and uncovered over an extended period of time: 2 mL samples of the five liquefied combinations were spotted onto glass plates and left uncovered at ambient conditions (temperatures within a range of 20°-25° C.) for approximately two months.

[4] = Storage in closed containers at ambient conditions for several months, visual phase check; settings: 20-25 C, atmospheric pressure
Text: Behaviors inconsistent with a single phase liquid include liquid/liquid separation of layers, or liquid/solid striation, in each case noticeable as such to the unaided eye. […] The single phase liquid need not necessarily be a true solution in the physical sense but will appear to be a single phase to the unaided eye as described above.
The amine-herbicide formulations prepared in Examples 1, 2, 3, and 4 were stored in closed containers at ambient conditions (room temperature varying from 20-25 C, atmospheric pressure) for several months.

SMILES | Max Load amine [1] | Max Load g ae/L [1] | density of max-load solution [2] | physical state after open exposure on glass plate [3] | physical state after storage (visual presence of salt solids) [4]
CP(=O)(O)CCC(N)C(=O)O.N (centres unmarked) [NH3/glufosinate] | 1340 g/L | 1339 g ae/L | – | – | –
CCCCN(CCCC)CCCC.O=C(O)COc1ccc(Cl)cc1Cl [TNBA/2,4-D] | – | – | 1.1 g/mL | turned into a crystallized mass | formed single phase liquids
CN(C)Cc1ccccc1.O=C(O)COc1ccc(Cl)cc1Cl [BDMA/2,4-D] | – | – | 1.25 g/mL | turned into a crystallized mass | formed single phase liquids
COc1c(Cl)ccc(Cl)c1C(=O)O [MMEA/dicamba] | – | – | 1.31 g/mL | remained liquefied | formed single phase liquids
